Test [1] relates to cell-based imaging, cytoskeleton assembly phenotype, high content. Description: cellular cytoskeleton assembly phenotype modulators – imaging, high-content imaging, retest and dose response, confirmation (AID 1249).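 Further: compound exposure lasted 24 h before fixation.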
Assay in test [2]: as above
Particulars: cell-based imaging, cytoskeleton assembly phenotype, high content; cell count; at 10 µM; stronger effect = lower value.

The source made the active and inactive calls. How the calls were made is not given here. Some results are limits rather than exact numbers.

A word on the IC50: it is the midpoint of a concentration-inhibition curve. With `CC1CCC/C=C/C2CC(O)CC2C(O)/C=C/C(=O)O1` (centres undefined), in test [1], the IC50 is > 10 µM (inactive). Also, the cell count in test [2] was 33.9%.

For `COc1cc(C2C(C#N)=C(C)NC3=C2C(=O)c2ccccc23)cc(OC)c1OC` (centres undefined), the IC50 in test [1] was 1.55 µM. Besides, the cell count in test [2] was found to be 34%.

Regarding `CCOC(=O)Nc1nc(-c2ccccc2)c(C(=O)c2ccccc2)s1`, the IC50 in test [1] is > 10 µM (inactive). This molecule also came in with a cell count in test [2] of 53.7%.

In the case of `O=C(N/N=C/C(Br)=C\c1ccccc1)c1n[nH]c2c1CCC2`, the IC50 in test [1] was 0.582 µM. The cell count in test [2] was 33.3%.

With `CCn1c2ccccc2c2cc(NC(=O)c3cc(OC)c(OC)c(OC)c3)ccc21`, the IC50 in test [1] was 1.73 µM. The molecule further showed a cell count in test [2] of 32.4%.

On to `Cc1ccc2[nH]c(-c3ccccc3)cc(=O)c2c1`, for which the IC50 in test [1] is > 10 µM (inactive). In test [2], this molecule yielded a cell count of 41.3%.

Take `CCN(CC)c1ccc2c(c1)OC(N)=C(C#N)C2c1cccnc1` (centres undefined): in test [1], the IC50 was 0.625 µM. Also, the cell count in test [2] amounted to 33.7%.

As for `Cc1c(C(=O)OCC(C)C)[nH]c2c1C(=O)CC(c1ccco1)C2` (centres undefined), the IC50 in test [1] was > 10 µM (inactive). Further, the cell count in test [2] worked out at 38.8%.

Take `COc1ccc(CCNc2nnc(Sc3nnnn3-c3ccccc3)s2)cc1OC`: the IC50 in test [1] was 1.87 µM. In test [2], this molecule showed a cell count of 32.1%.

Consider `CCCCCOc1ccc(Br)cc1/C(C)=N/NC1=NCCN1`, for which, in test [1], the half-maximal inhibitory concentration (IC50) is 5.97 µM. For the same molecule, the cell count in test [2] was 19.4%.

With `COc1cc(-c2nnc3n2N=C(c2ccccc2)CS3)cc(OC)c1OC`, the IC50 in test [1] is > 10 µM (inactive). In addition, in test [2], the cell count was found to be 90.7%.

As to `CCOC(=O)c1[nH]c(C)c(C(=O)c2cc(F)ccc2F)c1C`, the IC50 in test [1] was > 10 µM (inactive). Also, the cell count in test [2] is 48.7%.

Consider `CCCOc1ccccc1C1CC(=O)Nc2cc3c(cc21)OCCO3` (centres undefined), for which the IC50 in test [1] was > 10 µM (inactive). The cell count in test [2] was 125%.

For the molecule `Cc1ccc(Nc2nc(-c3c(C)nc4ccccn34)cs2)cc1`, the IC50 in test [1] is 1.37 µM. In test [2], this molecule came in with a cell count of 31.8%.

As for `Cc1cc(C)c(S(=O)(=O)Nc2ccc3c4c(cccc24)CC3)c(C)c1`, in test [1], the IC50 was > 10 µM (inactive). This molecule showed a cell count in test [2] of 78.5%.

As to `COc1cc(N2CCCC2)c(OC)cc1/C=c1/sc2nc3ccccc3n2c1=O`, in test [1], the IC50 was > 10 µM (inactive). Besides, the cell count in test [2] is 87.5%.

For the molecule `CC(/C=N/NC(=O)c1cc(-c2ccc(Cl)cc2)nc2ccccc12)=C\c1ccco1`, the IC50 in test [1] was > 10 µM (inactive). Also, the cell count in test [2] is 115%.

For `O=C(N/N=C/C(Br)=C/c1ccccc1)c1n[nH]c2c1CCC2`, the IC50 in test [1] is 5 µM. The molecule further displayed a cell count in test [2] of 30.8%.

`Cc1cc(C)c2nc(SCC(=O)N3CC(=O)Nc4ccccc43)c(C#N)cc2c1`: the IC50 in test [1] is > 10 µM (inactive). The cell count in test [2] was found to be 51.1%.

`Cc1ccc(NC(=O)Cn2nnc(-c3ccccc3NC(=O)c3cccs3)n2)cc1`: the IC50 in test [1] is > 10 µM (inactive). The cell count in test [2] is 109%.

As for `N#CC1=C(N)Oc2c(ccc3ccccc23)C1c1cccs1` (centres undefined), the IC50 in test [1] is > 10 µM (inactive). For the same molecule, the cell count in test [2] was 28.9%.

Take `CC1=C([N+](=O)[O-])C(c2cccc(Br)c2)C2=C(N1)c1ccccc1C2=O` (centres undefined): in test [1], the IC50 was 2.65 µM. This molecule had a cell count in test [2] of 30.8%.

On to `O=C(c1ccc(Br)cc1)c1cc([N+](=O)[O-])ccc1N1CCCCC1`, for which, in test [1], the IC50 is > 10 µM (inactive). Further, the cell count in test [2] was determined as 81.7%.

Consider `O=C(COc1ccccc1-c1ccccc1)N/N=C/c1cccc2ccccc12`, for which, in test [1], the IC50 was > 10 µM (inactive). The same molecule yielded a cell count in test [2] of 85%.

Consider `COc1ccc(-c2c/c(=N\c3nc(-c4ccccc4)c(C)s3)c3ccccc3o2)cc1O`, for which the IC50 in test [1] was > 10 µM (inactive). In test [2], this molecule returned a cell count of 113%.

For `COC(=O)C[C@]1(C(=O)OC)CN(C#N)N(c2ccc(Cl)cc2)C12c1ccccc1-c1ccccc12`, the IC50 in test [1] was > 10 µM (inactive). The cell count in test [2] was found to be 82%.

Consider `CCCC1=Nc2cc(C(=O)NCCCOCC)ccc2Sc2ccccc21`, for which the IC50 in test [1] is 0.873 µM. Also, the cell count in test [2] was 37.3%.

Turning to `CC(=O)Nc1ccc(S(=O)(=O)NC2(C(F)(F)F)C(=O)Nc3c2c(=O)[nH]c(=O)n3C)cc1` (centres undefined), the IC50 in test [1] was > 10 µM (inactive). For the same molecule, in test [2], the cell count is 90.8%.

With `CCN(CC)c1ccc2cc(-c3nc4ccccc4[nH]3)c(=O)oc2c1`, in test [1], the IC50 is > 10 µM (inactive). In addition, the cell count in test [2] came to 96.6%.

For `CCOc1ccc(S(=O)(=O)Nc2cc(OC)ccc2OC)cc1`, the IC50 in test [1] was > 10 µM (inactive). This molecule registered a cell count in test [2] of 44.2%.

On to `CCOc1ccccc1C(=O)N1CCN(c2cccc(Cl)c2)CC1`, for which the IC50 in test [1] is 1.25 µM. In test [2], this molecule registered a cell count of 36.6%.

On to `COc1ccc(NS(=O)(=O)c2cc(C)ccc2NC(=O)c2cc(C)oc2C)cc1`, for which, in test [1], the IC50 is > 10 µM (inactive). In test [2], the cell count is 52%.

On to `COc1cc(C2C3=C(Nc4ncnn42)c2ccccc2CC3)cc(OC)c1OC` (centres undefined), for which, in test [1], the IC50 was 5 µM. Also, in test [2], the cell count is 43.2%.

With `CCCOC(=O)c1[nH]c2c(c1C)C(=O)CC(c1cccs1)C2` (centres undefined), the IC50 in test [1] is > 10 µM (inactive). The cell count in test [2] stood at 40.1%.

As to `CCC1=Nc2cc(C(=O)NCCCOC)ccc2Sc2ccccc21`, the IC50 in test [1] is > 10 µM (inactive). This molecule also came in with a cell count in test [2] of 29.1%.

On to `COc1ccc(C2=Nn3c(nnc3-c3ccc(OC)cc3)SC2)cc1`, for which, in test [1], the IC50 was > 10 µM (inactive). For the same molecule, in test [2], the cell count came to 91.1%.

With `COC(=O)C1CN(C#N)N(c2ccc(Cl)cc2)C12c1ccccc1-c1ccccc12` (centres undefined), the IC50 in test [1] was > 10 µM (inactive). In addition, in test [2], the cell count turned out to be 85.3%.

As to `CCN(CC)c1ccc2cc(-c3nc4ccccc4n3C)c(=O)oc2c1`, in test [1], the IC50 is > 10 µM (inactive). Also, the cell count in test [2] is 99.7%.

Take `N=c1oc2c3c4c(cc2cc1C(=O)Nc1ccccc1)CCCN4CCC3`: in test [1], the IC50 is 8.21 µM. In test [2], this molecule yielded a cell count of 99.4%.

For the molecule `CC1=CC(C)(C)N(S(=O)(=O)c2ccc(C)cc2)c2cc(C)ccc21`, the IC50 in test [1] is > 10 µM (inactive). The molecule further had a cell count in test [2] of 90.8%.

For `Cc1cc(=O)oc2cc(OCC3CC(c4ccccc4Cl)=NO3)ccc12` (centres undefined), in test [1], the IC50 is > 10 µM (inactive). In test [2], this molecule returned a cell count of 92.5%.

On to `Cc1ccc(NC2=C/C(=N\S(=O)(=O)c3cccs3)c3ccccc3C2=O)c(C)c1`, for which the IC50 in test [1] was > 10 µM (inactive). In test [2], this molecule showed a cell count of 79.8%.

As for `CC(/C=N/NC(=O)c1cc(-c2ccncc2)nc2ccccc12)=C\c1ccco1`, the IC50 in test [1] is 4.55 µM. The same molecule came in with a cell count in test [2] of 35.1%.

Consider `Cc1ccc(C(=O)OCn2ncc(Cl)c(Cl)c2=O)cc1`, for which the IC50 in test [1] is 3.08 µM. Besides, in test [2], the cell count amounted to 1.4%.

Take `CC(C)Oc1ccccc1C1CC(=O)Nc2cc3c(cc21)OCCO3` (centres undefined): in test [1], the IC50 is > 10 µM (inactive). Besides, in test [2], the cell count turned out to be 88.5%.

In the case of `CC(C)Oc1ccccc1C1CC(=O)Nc2cc3c(cc21)OCO3` (centres undefined), the IC50 in test [1] was > 10 µM (inactive). The cell count in test [2] worked out at 113%.

Turning to `O=C(c1ccco1)N1CCN(C(=O)N2c3ccccc3Sc3ccccc32)CC1`, in test [1], the IC50 was > 10 µM (inactive). Also, the cell count in test [2] is 42%.

Turning to `O=C1CC(c2cc(Br)ccc2F)c2cc3c(cc2N1)CCC3` (centres undefined), the IC50 in test [1] is > 10 µM (inactive). The molecule also returned a cell count in test [2] of 105%.

As for `COc1ccccc1-n1cnc2cc(NCc3cccs3)ccc21`, the IC50 in test [1] is 3.24 µM. The cell count in test [2] is 31.6%.

As to `O=S(=O)(c1ccc2c(c1)C(=NO)c1cc(S(=O)(=O)N3CCCCC3)ccc1-2)N1CCCCC1`, the IC50 in test [1] is > 10 µM (inactive). The cell count in test [2] amounted to 126%.

As to `CCSc1nc2ccccc2n1C(=O)/C=C\c1ccc(OC)c(OC)c1`, the IC50 in test [1] was > 10 µM (inactive). In test [2], this molecule gave a cell count of 111%.

As for `COc1ccc(OC)c(C2C3=C(COC3=O)Nc3cc4c(cc32)OCO4)c1` (centres undefined), the IC50 in test [1] is > 10 µM (inactive). Also, the cell count in test [2] was 102%.

For `Cc1ccc(-c2nc(NC(=O)c3nn(C)cc3[N+](=O)[O-])sc2C)cc1C`, the IC50 in test [1] is > 10 µM (inactive). This molecule gave a cell count in test [2] of 88%.

In the case of `CCCCN1C(=O)/C(=C/C=C2\N(C)c3ccccc3C2(C)C)SC1=S`, the IC50 in test [1] was > 10 µM (inactive). The cell count in test [2] came to 94.3%.

For `O=C(CS(=O)c1ccc(C(F)(F)F)cc1[N+](=O)[O-])Oc1ccccc1` (centres undefined), in test [1], the IC50 is > 10 µM (inactive). In test [2], this molecule yielded a cell count of 94.1%.

As to `CCN(CC)c1ccc(-c2nn3c(-c4ccccc4OC)nnc3s2)cc1`, the 50% inhibitory concentration (IC50) in test [1] is 1.7 µM. For the same molecule, the cell count in test [2] was determined as 25.6%.

`CN(C)c1ccc(C(=O)c2ccc(N(C)C)c3ccccc23)cc1`: the IC50 in test [1] is 0.599 µM. In test [2], this molecule returned a cell count of 28.2%.

Consider `C=CCSc1nc2ccccc2n1C(=O)/C=C/c1cc(OC)c(OC)c(OC)c1`, for which the IC50 in test [1] is > 10 µM (inactive). Besides, the cell count in test [2] was found to be 102%.

Turning to `COCCN1C(=O)c2oc3c(C)cc(C)cc3c(=O)c2C1c1cccc(O)c1` (centres undefined), the IC50 in test [1] is > 10 µM (inactive). In test [2], this molecule showed a cell count of 86%.

With `O=C1C(=O)c2ccc(-c3ccccc3)cc2-c2ccccc21`, in test [1], the IC50 was > 10 µM (inactive). The molecule also had a cell count in test [2] of 111%.

Turning to `CCOC(=O)c1[nH]c(C)c(C(=O)N2CCc3ccccc32)c1C`, the IC50 in test [1] is 5 µM. Also, the cell count in test [2] came out at 31.8%.

Take `COc1ccc(NC(=O)/C(Cl)=C(/Cl)S(=O)Cc2ccccc2)cn1` (centres undefined): the IC50 in test [1] was > 10 µM (inactive). Also, in test [2], the cell count was determined as 48.1%.
